The values below come from patent US20230012374A1, “PROCESS FOR PRODUCING HERBICIDE AND INTERMEDIATE THEREOF” (KUMIAI CHEMICAL INDUSTRY CO., LTD., priority 2019, published 2023).

The structures appear in SMILES notation.

The data set is described as follows: Bulk specific gravity of pyroxasulfone crystals. In kind it is physicochemical. The conditions noted are these: crystal of pyroxasulfone.

For `Cn1nc(C(F)(F)F)c(CS(=O)(=O)C2=NOC(C)(C)C2)c1OC(F)F` [Comparative Example 3-1, 3-[(5-difluoromethoxy-1-methyl-3-trifluoromethylpyrazol-4-yl)methylsulfonyl]-4,5-dihydro-5,5-dimethylisoxazole], the bulk specific gravity is 0.53 g/mL.

`Cn1nc(C(F)(F)F)c(CS(=O)(=O)C2=NOC(C)(C)C2)c1OC(F)F` [Example 3-1, 3-[(5-difluoromethoxy-1-methyl-3-trifluoromethylpyrazol-4-yl)methylsulfonyl]-4,5-dihydro-5,5-dimethylisoxazole] registered a bulk specific gravity of 1.04 g/mL.
